In patent US9475805B2, “Tricyclic compound” (Kyowa Hakko Kirin Co., Ltd., priority 2008, dated 2016):

Biological target: T1, PPAR γ (Homo sapiens, UniProt P37231)
T1 construct: expressed in transfected cells; host or cells: HEK293EBNA
T1 sequence (P37231 174-475 isoform P37231-2): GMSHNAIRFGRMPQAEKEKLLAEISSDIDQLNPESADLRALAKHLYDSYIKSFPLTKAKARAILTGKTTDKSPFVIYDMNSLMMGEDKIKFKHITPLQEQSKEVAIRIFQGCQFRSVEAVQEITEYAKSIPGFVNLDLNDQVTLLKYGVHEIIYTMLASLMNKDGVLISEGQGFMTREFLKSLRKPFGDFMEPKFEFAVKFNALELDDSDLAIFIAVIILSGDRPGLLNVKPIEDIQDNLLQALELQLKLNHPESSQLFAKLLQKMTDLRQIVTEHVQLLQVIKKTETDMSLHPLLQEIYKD
Experiment: PPAR γ activation action based on transactivation assay of PPAR γ by transient gene transfer (GAL4-PPAR γ chimeric receptor, luciferase reporter, HEK293EBNA cells)
Format: cell-based
Conditions: concentration showing 50% of the compound's own efficacy (maximum activity rate relative to pioglitazone 10 μmol/L = 100%), 24 hr
Method: The agonist activity of compound (I) to PPAR γ was determined by a transactivation assay method using a chimeric nuclear receptor of a DNA binding region of a yeast transcription factor GAL4 and a PPAR γ ligand binding region. Specifically, the PPAR γ agonist activity of compound (I) was evaluated by the following method based on the method of Lehmann et al. (J Biol Chem., 1995, vol. 270, page 12953).
HEK293EBNA cells cultured in Dulbecco's Modified Eagle medium (Invitrogen) containing 10 v/v % fetal calf serum (Invitrogen) were used. 30 mL of the above-mentioned cells (density: 1×10^5 cells/mL) were inoculated in a […] (Iwaki Glass), and cultured overnight. Using SuperFect Transfection Reagent (QIAGEN), a plasmid expressing a GAL4-PPAR γ chimeric nuclear receptor fusing 174-475 amino acids, which are human PPAR γ ligand binding region, and 1-147 amino acids, which are GAL4 DNA binding region, and a reporter plasmid expressing a GAL4 responsive luciferase were transiently introduced into the cells at a proportion of 4:1. After 5 hr from transfection, the cells were detached from the culture dish, and the detached cells (density: 2×10^4 cells/mL) were inoculated by 100 μL in each well of a 96 well white plate (SUMITOMO BAKELITE), and cultured overnight. The medium was removed, compound (I) diluted in various concentrations with serum-free Dulbecco's Modified Eagle medium was added by 100 μL, and the mixture was reacted under a 5% carbon dioxide gas stream (5% CO2) at 37° C. for 24 hr. On the other hand, as a positive control, 10 μmol/L of pioglitazone (100 μL) was added, and the mixture was reacted under a 5% carbon dioxide gas stream (5% CO2) at 37° C. for 24 hr. As a substrate of luciferase, 100 μL of Steady-Glo (Promega) was added to each well and the mixture was thoroughly stirred. Immediately thereafter, the chemical luminescence due to luciferase was measured using TopCount NTX (Packard).
The agonist activity (activity rate (%)) of compound (I) to PPAR γ was calculated according to the following formula, as a relative activity when the agonist activity on addition of pioglitazone (10 μmol/L) was 100%.

Structure (SMILES) | EC50 [nM]
CCCc1nc2ccccc2n1Cc1ccc2c(c1)COc1ccc(F)cc1/C2=C(\C)c1noc(=O)[nH]1 [Compound 116, (E)-2-Fluoro-8-(2-propylbenzimidazol-1-yl)methyl-11-[1-(5-oxo-4,5-dihydro-1,2,4-oxadiazol-3-yl)ethylidene]-6,11-dihydrodibenzo[b,e]oxepine] | 12
C/C(=C1\c2ccccc2OCc2nc(Cn3c(C4CC4)nc4c(Cl)ccnc43)ccc21)c1noc(=O)[nH]1 [Compound 119, (E)-2-(7-Chloro-2-cyclopropyl-3H-imidazo[4,5-b]pyridin-3-yl)methyl-5-[1-(5-oxo-4,5-dihydro-1,2,4-oxadiazol-3-yl)ethylidene]-5,11-dihydrobenzooxepino[3,4-b]pyridine] | 314
